Source: patent US11028095B2, “Spiro-lactam and bis-spiro-lactam NMDA receptor modulators and uses thereof” (Aptinyx Inc., priority 2016, dated 2021)
Read-outs that look alike come from different tables or passages of the source.

What was measured:
Assay type in all cases: biochemical
[1] = molecular target: T1, NMDAR2B expressing HEK cell membranes (Homo sapiens, UniProt Q05586+Q13224); assay: NMDAR agonist assay, [3H]MK-801 binding, NMDAR2B; conditions: for EC50: [3H]MK-801 binding; for Emax: relative to 1 mM glycine
T1 construct: expressed in transfected cells; host or cells: HEK cells (membrane extract)
Description: (§1) (nonequilibrium conditions).
(§2) The baseline value was determined from the best fit curve of the DPM values modeled using the GraphPad program and the log(agonist) vs. response(three parameters) algorithm was then subtracted from all points in the dataset.

[2] = molecular target: T2, NMDAR2B expressing HEK cell membranes (Homo sapiens, UniProt Q13224); assay: NMDAR agonist assay, [3H]MK-801 binding, NMDAR2B; conditions: 50 μM glutamate; for EC50: [3H]MK-801 binding, read-out: NMDAR2B log EC50 (converted)
T2 construct: expressed in transfected cells; host or cells: HEK cells (membrane extract)
Description: as §1, §2

[3] = molecular target: T3, NMDAR2A expressing HEK cell membranes (Homo sapiens, UniProt Q05586+Q12879); assay: NMDAR agonist assay, [3H]MK-801 binding, NMDAR2A; conditions: for EC50: [3H]MK-801 binding; for Emax: relative to 1 mM glycine
T3 construct: expressed in transfected cells; host or cells: HEK cells (membrane extract)
Description: as §1, §2

[4] = molecular target: T4, NMDAR2A expressing HEK cell membranes (Homo sapiens, UniProt Q12879); assay: NMDAR agonist assay, [3H]MK-801 binding, NMDAR2A; conditions: 50 μM glutamate
T4 construct: expressed in transfected cells; host or cells: HEK cells (membrane extract)
Description: as §1, §2

[5] = 50 μM glutamate, read-out: NMDAR2B log EC50 (converted)
[6] = 50 μM glutamate, read-out: NMDAR2A: log EC50 (converted)
[7] = 50 μM glutamate, read-out: NMDAR2A: % maximal [3H]MK-801 binding relative to 1 mM glycine
[8] = 50 μM glutamate, read-out: NMDAR2B: % maximal [3H]MK-801 binding relative to 1 mM glycine
[9] = NMDAR2B: log EC50, 50 μM glutamate
[10] = read-out: NMDAR2B: % maximal [3H]MK-801 binding relative to 1 mM glycine, 50 μM glutamate
[11] = NMDAR2A: log EC50, 50 μM glutamate
[12] = read-out: NMDAR2A: % maximal [3H]MK-801 binding relative to 1 mM glycine, 50 μM glutamate

T3 sequence (Q12879 23-1464, other chains not shown): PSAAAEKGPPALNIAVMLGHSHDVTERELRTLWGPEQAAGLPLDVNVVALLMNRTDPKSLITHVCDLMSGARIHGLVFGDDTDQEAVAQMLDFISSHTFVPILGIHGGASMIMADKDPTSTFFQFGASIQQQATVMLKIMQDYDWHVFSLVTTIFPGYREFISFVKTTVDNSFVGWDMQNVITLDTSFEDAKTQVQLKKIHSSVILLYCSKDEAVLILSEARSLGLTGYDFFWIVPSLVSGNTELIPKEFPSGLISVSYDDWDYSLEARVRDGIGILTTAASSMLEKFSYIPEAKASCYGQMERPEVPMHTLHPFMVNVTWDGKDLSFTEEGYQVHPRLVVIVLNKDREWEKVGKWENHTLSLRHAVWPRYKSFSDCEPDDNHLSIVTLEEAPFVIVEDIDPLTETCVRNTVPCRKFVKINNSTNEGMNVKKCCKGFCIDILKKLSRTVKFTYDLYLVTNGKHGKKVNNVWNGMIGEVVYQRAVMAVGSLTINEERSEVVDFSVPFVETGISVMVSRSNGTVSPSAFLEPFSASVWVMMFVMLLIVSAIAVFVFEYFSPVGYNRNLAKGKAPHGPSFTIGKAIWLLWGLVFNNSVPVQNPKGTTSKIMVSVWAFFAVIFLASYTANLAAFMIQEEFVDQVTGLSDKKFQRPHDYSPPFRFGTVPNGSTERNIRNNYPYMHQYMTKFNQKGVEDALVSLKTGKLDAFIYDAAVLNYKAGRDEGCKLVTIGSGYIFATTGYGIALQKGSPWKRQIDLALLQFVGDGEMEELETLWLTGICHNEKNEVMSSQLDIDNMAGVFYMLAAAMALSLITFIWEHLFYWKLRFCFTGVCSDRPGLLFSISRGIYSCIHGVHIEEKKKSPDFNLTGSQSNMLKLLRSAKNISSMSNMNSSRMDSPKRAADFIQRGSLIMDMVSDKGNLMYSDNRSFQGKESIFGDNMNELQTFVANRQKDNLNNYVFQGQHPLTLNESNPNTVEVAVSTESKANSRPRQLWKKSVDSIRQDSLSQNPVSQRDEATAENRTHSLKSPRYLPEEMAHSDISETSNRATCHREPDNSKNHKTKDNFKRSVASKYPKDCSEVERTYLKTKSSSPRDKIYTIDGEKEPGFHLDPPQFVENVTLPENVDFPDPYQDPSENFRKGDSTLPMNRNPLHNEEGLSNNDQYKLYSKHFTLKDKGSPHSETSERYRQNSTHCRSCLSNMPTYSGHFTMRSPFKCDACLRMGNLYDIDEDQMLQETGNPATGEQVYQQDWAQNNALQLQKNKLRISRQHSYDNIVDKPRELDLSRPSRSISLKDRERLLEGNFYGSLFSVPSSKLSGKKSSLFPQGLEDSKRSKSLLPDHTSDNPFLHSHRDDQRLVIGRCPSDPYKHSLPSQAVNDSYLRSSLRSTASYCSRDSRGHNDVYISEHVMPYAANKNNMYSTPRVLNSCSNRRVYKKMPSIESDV
T4 sequence (Q12879 23-1464, other chains not shown): as above
T1 sequence (Q13224 27-1484, other chains not shown): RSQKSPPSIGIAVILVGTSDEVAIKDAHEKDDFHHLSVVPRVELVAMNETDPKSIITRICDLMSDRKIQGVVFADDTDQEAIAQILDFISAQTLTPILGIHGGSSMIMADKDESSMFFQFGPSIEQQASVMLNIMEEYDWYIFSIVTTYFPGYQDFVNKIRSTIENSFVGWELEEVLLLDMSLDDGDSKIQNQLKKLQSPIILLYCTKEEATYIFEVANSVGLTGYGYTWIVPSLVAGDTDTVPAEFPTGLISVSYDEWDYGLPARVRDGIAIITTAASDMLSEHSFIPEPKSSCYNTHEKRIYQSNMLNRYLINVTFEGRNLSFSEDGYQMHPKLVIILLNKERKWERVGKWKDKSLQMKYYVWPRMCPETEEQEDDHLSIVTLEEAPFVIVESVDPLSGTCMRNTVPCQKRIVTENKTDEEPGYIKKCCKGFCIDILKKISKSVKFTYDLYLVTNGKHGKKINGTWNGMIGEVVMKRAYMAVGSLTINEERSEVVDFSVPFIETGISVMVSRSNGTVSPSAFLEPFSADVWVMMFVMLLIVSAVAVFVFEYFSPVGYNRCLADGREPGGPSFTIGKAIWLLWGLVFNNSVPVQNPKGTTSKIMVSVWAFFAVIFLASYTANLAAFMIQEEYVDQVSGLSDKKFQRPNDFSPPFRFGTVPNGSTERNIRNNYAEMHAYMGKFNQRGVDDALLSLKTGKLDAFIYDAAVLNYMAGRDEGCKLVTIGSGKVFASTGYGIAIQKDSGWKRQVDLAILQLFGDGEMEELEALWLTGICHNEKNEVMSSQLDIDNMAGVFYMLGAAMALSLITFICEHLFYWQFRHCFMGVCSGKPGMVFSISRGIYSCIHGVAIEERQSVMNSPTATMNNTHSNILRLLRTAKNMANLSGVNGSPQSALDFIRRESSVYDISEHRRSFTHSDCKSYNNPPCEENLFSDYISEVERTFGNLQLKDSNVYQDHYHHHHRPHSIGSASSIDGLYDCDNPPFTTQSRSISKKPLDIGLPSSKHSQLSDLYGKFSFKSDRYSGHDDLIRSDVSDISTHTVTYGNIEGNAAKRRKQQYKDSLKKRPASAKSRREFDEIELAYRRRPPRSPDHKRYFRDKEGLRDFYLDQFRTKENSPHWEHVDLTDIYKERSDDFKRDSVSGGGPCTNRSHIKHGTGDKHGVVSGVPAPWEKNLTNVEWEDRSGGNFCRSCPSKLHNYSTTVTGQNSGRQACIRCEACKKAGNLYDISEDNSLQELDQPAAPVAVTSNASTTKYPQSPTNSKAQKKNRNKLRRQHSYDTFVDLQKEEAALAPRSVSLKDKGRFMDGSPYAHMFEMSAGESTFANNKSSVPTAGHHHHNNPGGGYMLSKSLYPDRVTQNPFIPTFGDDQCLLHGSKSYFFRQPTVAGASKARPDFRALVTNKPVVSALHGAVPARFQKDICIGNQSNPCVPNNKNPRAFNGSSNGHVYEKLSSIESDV

## CC(C)C(=O)N1C2(CCC13CNC3=O)CNC2=O (single isomer, unassigned) [AG, 5-isobutyryl-2,5,8-triazadispiro[3.1.36.24]undecane-1,7-dione]
[1]; [5]
  EC50: > 100 nM
[2]
  NMDAR2B: % maximal [3H]MK-801 binding relative to 1 mM glycine: − (−=0)
[3]; [6]
  EC50: < 1 nM
[3]; [7]
  Emax: < 100%

## C[C@@H](O)[C@H](NC(=O)C1CCC2(CNC2=O)N1Cc1ccccc1)C(N)=O (single isomer, unassigned) [AL-1]
[1]; [5]
  EC50: > 100 nM
[2]
  NMDAR2B: % maximal [3H]MK-801 binding relative to 1 mM glycine: − (−=0)
[3]; [6]
  EC50: < 1 nM
[3]; [7]
  Emax: < 100%

## C[C@@H](O)[C@H](NC(=O)C1CCC2(CNC2=O)N1C)C(N)=O (single isomer, unassigned) [BC]
[1]; [5]
  EC50: < 1 nM
[1]; [8]
  Emax: > 100%
[3]; [7]
  Emax: < 100%

## CC(C)(C)OC(=O)N1C(C(N)=O)CCC12CN(OCc1ccccc1)C2=O (single isomer, unassigned) [BG, tert-butyl 2-(benzyloxy)-6-carbamoyl-1-oxo-2,5-diazaspiro[3.4]octane-5-carboxylate]
[1]; [8]
  Emax: < 100%
[3]; [6]
  EC50: < 1 nM
[4]
  NMDAR2A: % maximal [3H]MK-801 binding relative to 1 mM glycine: + (<100%=+)

## CNC(=O)[C@@H](NCC1CCC2(CN(OCc3ccccc3)C2=O)N1C(=O)OC(C)(C)C)[C@@H](C)O (single isomer, unassigned) [BM]
[1]; [5]
  EC50: > 100 nM
[1]; [8]
  Emax: 0%
[3]; [6]
  EC50: > 100 nM
[3]; [7]
  Emax: 0%

## C[C@@H](O)[C@H](NCC1CCC2(CN(OCc3ccccc3)C2=O)N1C(=O)OC(C)(C)C)C(=O)N(C)C (single isomer, unassigned) [BQ]
[1]; [5]
  EC50: < 1 nM
[1]; [8]
  Emax: < 100%
[3]; [6]
  EC50: > 100 nM
[4]
  NMDAR2A: % maximal [3H]MK-801 binding relative to 1 mM glycine: − (−=0)

## COc1ccc(CN2CC3(CC(N[C@H](C(=O)O)[C@@H](C)O)CN3C(=O)OC(C)(C)C)C2=O)cc1 (single isomer, unassigned) [CE, (5-(tert-butoxycarbonyl)-2-(4-methoxybenzyl)-1-oxo-2,5-diazaspiro[3.4]octan-7-yl)-L-threonine]
[1]; [5]
  EC50: < 1 nM
[1]; [8]
  Emax: > 100%
[3]; [6]
  EC50: > 100 nM
[3]; [7]
  Emax: 0%

## CC(O)C(NCC1CCC2(CN(OCc3ccccc3)C2=O)N1)C(N)=O (single isomer, unassigned) [CK]
[1]; [5]
  EC50: < 1 nM
[1]; [8]
  Emax: < 100%
[3]; [6]
  EC50: > 100 nM
[4]
  NMDAR2A: % maximal [3H]MK-801 binding relative to 1 mM glycine: − (−=0)

## CC(O)C(NCC1CCC2(CNC2=O)N1)C(N)=O (single isomer, unassigned) [CM]
[1]; [5]
  EC50: < 1 nM
[1]; [8]
  Emax: < 100%
[3]; [6]
  EC50: < 1 nM
[3]; [7]
  Emax: < 100%

## CNC(=O)C(NCC1CCC2(CN(OCc3ccccc3)C2=O)N1)C(C)O (single isomer, unassigned) [CO]
[1]; [5]
  EC50: < 1 nM
[1]; [8]
  Emax: < 100%
[3]; [6]
  EC50: < 1 nM
[3]; [7]
  Emax: < 100%

## CNC(=O)C(NCC1CCC2(CNC2=O)N1)C(C)O (single isomer, unassigned) [CQ]
[1]; [5]
  EC50: < 1 nM
[1]; [8]
  Emax: > 100%
[3]; [6]
  EC50: > 100 nM
[4]
  NMDAR2A: % maximal [3H]MK-801 binding relative to 1 mM glycine: − (−=0)

## CNC(=O)C(C(C)O)N(C)CC1CCC2(CN(OCc3ccccc3)C2=O)N1 (single isomer, unassigned) [CW]
[1]; [5]
  EC50: < 1 nM
[1]; [8]
  Emax: < 100%
[3]; [6]
  EC50: < 1 nM
[3]; [7]
  Emax: < 100%

## NC(=O)C1CCC2(CN(OCc3ccccc3)C2=O)N1 (single isomer, unassigned) [CY, 2-(benzyloxy)-1-oxo-2,5-diazaspiro[3.4]octane-6-carboxamide]
[1]; [5]
  EC50: < 1 nM
[1]; [8]
  Emax: < 100%
[3]; [6]
  EC50: < 1 nM
[3]; [7]
  Emax: < 100%

## NC(=O)C1CCC2(CN(OCc3ccccc3)C2=O)N1 (single isomer, unassigned) [CZ, 2-(benzyloxy)-1-oxo-2,5-diazaspiro[3.4]octane-6-carboxamide]
[4]; [3H]MK-801 binding, read-out: NMDAR2A: log EC50 (converted)
  EC50: < 1 nM

## NC(=O)C1CCC2(CNC2=O)N1 (single isomer, unassigned) [DA, 1-oxo-2,5-diazaspiro[3.4]octane-6-carboxamide]
[1]; [5]
  EC50: < 1 nM
[1]; [8]
  Emax: < 100%
[3]; [6]
  EC50: < 1 nM
[3]; [7]
  Emax: < 100%

## NC(=O)C1CCC2(CNC2=O)N1 (single isomer, unassigned) [DB, 1-oxo-2,5-diazaspiro[3.4]octane-6-carboxamide]
[2]
  EC50: < 1 nM

## CC(C)CN1C(C(N)=O)CCC12CNC2=O (single isomer, unassigned) [DC, 5-isobutyl-1-oxo-2,5-diazaspiro[3.4]octane-6-carboxamide]
[1]; [5]
  EC50: < 1 nM
[1]; [8]
  Emax: > 100%
[3]; [6]
  EC50: < 1 nM
[3]; [7]
  Emax: < 100%

## NC(=O)C1CCC2(CNC2=O)N1Cc1ccccc1 (single isomer, unassigned) [DE, 5-benzyl-1-oxo-2,5-diazaspiro[3.4]octane-6-carboxamide]
[1]; [5]
  EC50: < 1 nM
[1]; [8]
  Emax: < 100%
[3]; [6]
  EC50: < 1 nM
[3]; [7]
  Emax: < 100%

## NC(=O)C1CCC2(CNC2=O)N1Cc1ccc(F)cc1 (single isomer, unassigned) [DG, 5-(4-fluorobenzyl)-1-oxo-2,5-diazaspiro[3.4]octane-6-carboxamide]
[1]; [8]
  Emax: < 100%
[3]; [6]
  EC50: < 1 nM
[3]; [7]
  Emax: < 100%

## O=C1NCC12CCC1(CNC1=O)N2Cc1ccc(F)cc1 (single isomer, unassigned) [DI, 5-(4-fluorobenzyl)-2,5,8-triazadispiro[3.1.36.24]undecane-1,7-dione]
[1]; [5]
  EC50: < 1 nM
[1]; [8]
  Emax: < 100%
[3]; [7]
  Emax: < 100%

## O=C1NCC12CCC1(CNC1=O)N2Cc1ccc(F)cc1 (single isomer, unassigned) [DJ, 5-(4-fluorobenzyl)-2,5,8-triazadispiro[3.1.36.24]undecane-1,7-dione]
[2]
  EC50: < 1 nM
[3]; [6]
  EC50: < 1 nM

## CN1C2(CCC13CNC3=O)CNC2=O (stereo not drawn) [AB-3, 5-methyl-2,5,8-triazadispiro[3.1.36.24]undecane-1,7-dione]
[1]; [9]
  EC50: > 100 nM
[1]; [10]
  Emax: 0%
[3]; [11]
  EC50: > 100 nM
[3]; [12]
  Emax: 0%

## CC(C)CN1C2(CCC13CNC3=O)CNC2=O (stereo not drawn) [AE, 5-isobutyl-2,5,8-triazadispiro[3.1.36.24]undecane-1,7-dione]
[1]; [9]
  EC50: > 100 nM
[1]; [10]
  Emax: 0%
[3]; [11]
  EC50: > 100 nM
[3]; [12]
  Emax: 0%

## CC(C)C(=O)N1C[C@@H](C(N)=O)C[C@]12CNC2=O [AT, (4R,7S)-5-isobutyryl-1-oxo-2,5-diazaspiro[3.4]octane-7-carboxamide]
[1]; [5]
  EC50: > 100 nM
[1]; [8]
  Emax: 0%
[3]; [7]
  Emax: < 100%

## C[C@@H](O)[C@H](NCC1CCC2(CN(OCc3ccccc3)C2=O)N1C(=O)OC(C)(C)C)C(N)=O (stereo partly drawn) [BI]
[1]; [5]
  EC50: > 100 nM
[1]; [8]
  Emax: 0%
[3]; [6]
  EC50: > 100 nM
[3]; [7]
  Emax: 0%

## C[C@@H](O)[C@H](NCC1CCC2(CNC2=O)N1C(=O)OC(C)(C)C)C(N)=O (stereo partly drawn) [BK]
[1]; [8]
  Emax: < 100%
[3]; [6]
  EC50: > 100 nM
[3]; [7]
  Emax: 0%

## C[C@@H](O)[C@H](NCC1CCC2(CNC2=O)N1C(=O)OC(C)(C)C)C(N)=O (stereo partly drawn) [BL]
[1]; [5]
  EC50: < 1 nM

## CNC(=O)[C@@H](NCC1CCC2(CNC2=O)N1C(=O)OC(C)(C)C)[C@@H](C)O (stereo partly drawn) [BP]
[1]; [5]
  EC50: > 100 nM
[1]; [8]
  Emax: 0%
[3]; [6]
  EC50: > 100 nM
[3]; [7]
  Emax: 0%

## C[C@@H](O)[C@@H](C(N)=O)N(C)CC1CCC2(CN(OCc3ccccc3)C2=O)N1C(=O)OC(C)(C)C (stereo partly drawn) [BU, tert-butyl 6-((((2S,3R)-1-amino-3-hydroxy-1-oxobutan-2-yl)(methyl)amino)methyl)-2-(benzyloxy)-1-oxo-2,5-diazaspiro[3.4]octane-5-carboxylate]
[1]; [5]
  EC50: < 1 nM
[1]; [8]
  Emax: < 100%
[3]; [6]
  EC50: < 1 nM
[3]; [7]
  Emax: < 100%

## C[C@@H](O)[C@@H](C(=O)N(C)C)N(C)CC1CCC2(CN(OCc3ccccc3)C2=O)N1C(=O)OC(C)(C)C (stereo partly drawn) [BW]
[1]; [5]
  EC50: < 1 nM
[1]; [8]
  Emax: > 100%
[3]; [6]
  EC50: < 1 nM
[3]; [7]
  Emax: < 100%

## COc1ccc(CN2CC3(CC(N[C@H](C(N)=O)[C@@H](C)O)CN3C(=O)OC(C)(C)C)C2=O)cc1 (stereo partly drawn) [CA, tert-butyl 7-(((2S,3R)-1-amino-3-hydroxy-1-oxobutan-2-yl)amino)-2-(4-methoxybenzyl)-1-oxo-2,5-diazaspiro[3.4]octane-5-carboxylate]
[1]; [5]
  EC50: > 100 nM
[1]; [8]
  Emax: 0%
[3]; [6]
  EC50: > 100 nM
[3]; [7]
  Emax: 0%

## COc1ccc(CN2CC3(CC(N[C@H](C(N)=O)[C@@H](C)O)CN3)C2=O)cc1 (stereo partly drawn) [CC]
[1]; [5]
  EC50: > 100 nM
[1]; [8]
  Emax: 0%
[3]; [7]
  Emax: < 100%

## COc1ccc(CN2CC3(CC(N[C@H](C(N)=O)[C@@H](C)O)CN3)C2=O)cc1 (stereo partly drawn) [CD]
[3]; [6]
  EC50: < 1 nM

## COc1ccc(CN2CC3(CC(N[C@H](C(=O)O)[C@@H](C)O)CN3C(=O)OC(C)(C)C)C2=O)cc1 (stereo partly drawn) [CF, (5-(tert-butoxycarbonyl)-2-(4-methoxybenzyl)-1-oxo-2,5-diazaspiro[3.4]octan-7-yl)-L-threonine]
[1]; [5]
  EC50: < 1 nM
[1]; [8]
  Emax: < 100%
[3]; [6]
  EC50: > 100 nM
[3]; [7]
  Emax: 0%

## COc1ccc(CN2C[C@@]3(C[C@H](C(N)=O)CN3CC(C)C)C2=O)cc1 [CI, (4S,7S)-5-isobutyl-2-(4-methoxybenzyl)-1-oxo-2,5-diazaspiro[3.4]octane-7-carboxamide]
[1]; [5]
  EC50: < 1 nM
[1]; [8]
  Emax: < 100%
[3]; [7]
  Emax: < 100%

## COc1ccc(CN2CC3(C[C@H](C(N)=O)CN3CC(C)C)C2=O)cc1 (stereo partly drawn) [CJ]
[1]; [8]
  Emax: < 100%
[3]; [7]
  Emax: < 100%
